Experimental findings from patent US10618937B2, “Method of treating Alzheimer's disease” (INDUSTRY-ACADEMIC COOPERATION FOUNDATION GYEONGSANG …, priority 2016, dated 2020) are described below.

The test system of test [1] is APP-transfected SH-SY5Y cells. As to the kind of experiment: MTT assay, cell viability of APP-transfected SH-SY5Y cells. The following applies: 0.5, 1, 5, 10 and 20 μM, 4 hours, compared to the untreated APP group. In kind it is cell-based, human. The protocol:
The human APPswe/ind gene under the transcriptional control of the SV40 promoter/enhancer linked to the pCAX mammalian expression vector was obtained from addgene; The gene was deposited in the APP reservoir by Dennis Solkoe (plasmid 30145). The plasmid was amplified by DH5alpha strain in LB medium containing 50 μg/ml of ampicillin. The plasmid was purified by using a Qiagen plasmid mini kit (Cat #12143) and digested with EcoRV restriction enzyme and confirmed. The human neuroblastoma cell line SHYSY5Y used in the present in vitro experiments was cultured in DMEM medium containing 10% fetal bovine serum and 1% penicillin-streptomycin antibiotic (stock solutions concentrations of 10,000 U and 10,000 μg/ml, respectively)).
SH-SY5Y cells and HT-22 cells were inoculated into a culture flask containing the medium, and cultured until reaching the confluency of 70% to 75%. The pCAX vector with the APPswe/ind gene was transfected for 48 hours by using Lipofectamine 3000 (Life technologies) according to the manufacturers instructions.
APPswe/ind transfected SH-SY5Y cells were treated with novel peptide for 4 hours, followed by 3-[4, 5-dimethylthiazol-2-yl]-2,5-diphenyl tetrazolium bromide (MTT) analysis and Western blot analysis.
MTT assay was performed to measure the survival rate of cells treated with various concentrations of adiponectin receptor-activating novel peptide (5AA1). The cells were inoculated at 1×10^5 cells/well in a 96-well plate containing 200 μl of Dulbecco's modified Eagle's medium (DMEM). After 70% of cell confluence, SH-SY5Y cells were treated with 0.5 μM, 1 μM, 5 μM, 10 μM, and 20 μM of adiponectin receptor-activating novel peptide, and then cultured for 4 hours. At the end of the treatment, MTT (5 mg/ml in PBS) was added to each well, and the plate was cultured at a temperature of 37° C. for 4 hours. The formazan dissolved in dimethyl sulfoxide (DMSO) was added to the well and the plate was stirred in the agitator for 10 to 20 minutes. Then, the absorbance was measured at a wavelength of 550 nm to 570 nm (L1) and 620 nm to 650 nm (L2) by using a scanning microplate reader.
The L2 absorbance was measured for cell residuals and well imperfections, and the corrected absorbance (Abs.=L1−L2) of each well was calculated from 100× the absorbance of treated well/absorbance of the control well, and was used to measure the cell viability.
On the technique in general: Formazan colour is commonly taken as a measure of viable cells.

The subject of a further test is APP/PS1 mice. Nature of the test: Thioflavin S staining / immunofluorescence analysis of amyloid plaques in brain. In kind it is in vivo. Particulars: cortex of APP/PS1 mice, compared to Veh-injected APP/PS1 mice, P<0.001. Here is the method: Adiponectin receptor-activating novel peptide (5AA1) was IP administered to 10 week old APP/PS1 mice once every 2.5 days for 45 days, and then, to prepare a slide section, the brains of the mice were fixed by transcardial perfusion of ice-cold 4% paraformaldehyde. The brains were fixed in 4% paraformaldehyde for 72 hours, and then, transferred to 20% sucrose and maintained at a temperature of 4° C. for 72 hours. The brains were placed in an optimal cutting temperature (OCT) compound (A.O., USA), frozen in liquid nitrogen, and sectioned into coronal plane (14 μm) in CM 3050C cryostat (Leica, Germany). Pictures of tissue sections were taken on ProbeOn Plus charged slides (Fisher, USA).
Immunofluorescence analysis was performed by using minor modifications of the method described in the existing study (Shah et al., 2014; Shah et al., 2015). Slides containing tissue sections were washed twice with a 0.01 M PBS solution for 15 minutes. Proteinase K was added to the tissue sections, which were then cultured at a temperature of 37° C. for 5 minutes. The tissue sections were then reacted in a blocking solution (5% normal goat serum, 0.3% Triton X-100, PBS) for 1 hour. The slides were reacted overnight with the primary antibody (the same antibody used in the ‘Western blot analysis’) and then reacted with secondary TRITC- or FITC-conjugated antibodies (diluted 1:50 in PBS; Santa Cruz) at room temperature for 90 minutes. The slides were dipped in Prolong Antifade reagent (Molecular Probe, Eugene, Oreg., USA) and stained. All stained slides were analyzed with a confocal laser scanning microscope (Flouview FV 1000). Amyloid plaques were visualized in brain slices after Thioflavin S staining. The brain slices were washed twice with 0.01 M PBS for 10 minutes, and then immersed in fresh 1% Thioflavin S solution at room temperature for 10 minutes. The brain slices were then immersed in 70% ethanol for 5 minutes, then washed twice with water, counterstained with propidium iodide (PI) and covered with cover glass.
Morphological analysis and signals were analyzed with Image J software (open source software provided by the US NIH), and the analysis results were expressed as IOD (Integral Optical Density). The ratio of the amyloid deposit site in the proposed area was also quantified by using Image-J software.

With “GPCYP (adiponectin receptor-activating peptide) [5AA3]”, the cell viability entry in test [1] is listed as “increased compared to the APP group, although the increase was not dependent on concentration”. The “integrated density of the Aβ plaques in the cortex (Thioflavin S)” value (from here on “integrated density of the Aβ plaques”) with APP/PS1 mice is recorded as “significantly reduced”.

As to “GPCWP (adiponectin receptor-activating peptide) [5AA4]”, the cell viability result in test [1] was “increased compared to the APP group, although the increase was not dependent on concentration”. In addition, in the test with APP/PS1 mice, the “integrated density of the Aβ plaques” value was “significantly reduced”.

Regarding “GPWGP (adiponectin receptor-activating peptide) [5AA2]”, the cell viability result in test [1] is on record as “concentration-dependently increased”. The “integrated density of the Aβ plaques” value in the test on APP/PS1 mice is recorded as “significantly reduced”.
